Laboratory results as given in patent US11034725B2, “Compositions and methods for treating cardiovascular disease” (Genentech, Inc., priority 2016, dated 2021).
“Also recorded” adds a separate entry of the source. Square brackets hold non-standard residues; d marks the D form. Ends that are not written are not given here. Peptide text beside a SMILES is read from it. * marks the point of attachment. hArg = N=C(N)NCCCC[C@H](N)C(=O)O; Pentanoyl = CCCCC(=O)*

Assays:
PCSK9 [1] = target: T1, PCSK9 (Homo sapiens, UniProt Q8NBP7); assay: PCSK9/EGF(A) TR-FRET binding assay; details: TR-FRET, Example 7; read-out: PCSK9/EGF(A) IC50
PCSK9Δhelix [2] = target: T2, PCSK9Δhelix (Homo sapiens, UniProt Q8NBP7); assay: PCSK9Δhelix/Ab20 TR-FRET binding assay
T2 construct: Human PCSK9 construct M1-Q692 with an engineered TEV site (residue deletion Y166, R167); made in house; host or cells: CHO

His-EGF(A)-Fc = His-EGF(A)-Fc TR-FRET counterscreen; details: counterscreen, Example 7
[3] = target: T3, PCSK9-R167A:R215A:R218A (PCSK9-AAA) (Homo sapiens, UniProt Q8NBP7, R167A/R215A/R218A); assay: FXIa cleavage assay of the P′ helix of PCSK9-AAA; format: biochemical; details: immunoblot with anti-N-terminal peptide antibody
T3 construct: made in house; host or cells: CHO (transient)
Experimental: The PCSK9-AAA mutant (2.6 μM) was incubated with 50 nM FXIa (Haematologic Technologies) in Tris buffer (50 mM Tris, 150 mM NaCl, 4 mM CaCl2, pH 8.0) at room temperature for the indicated time periods. […] After SDS-PAGE of the samples, proteins were transferred to a nitrocellulose membrane using iBlot (Invitrogen). Proteins were then probed with a polyclonal rabbit antibody (1:3000) raised against the PCSK9 N-terminal peptide (^153[…]^168 (SEQ ID NO: 5)), followed with HRP-conjugated donkey anti-rabbit antibody (1:5000, GE Healthcare) using iBind (Invitrogen). PCSK9 signals were detected by ECL (GE Healthcare) and visualized by autoradiography.
Proteins were then probed with a polyclonal rabbit antibody (1:3000) raised against the PCSK9 N-terminal peptide (^153[…]^168 (SEQ ID NO: 5)), followed with HRP-conjugated donkey anti-rabbit antibody (1:5000, GE Healthcare) using iBind (Invitrogen). PCSK9 signals were detected by ECL (GE Healthcare) and visualized by autoradiography.

FXIa = target: T4, FXIa (Homo sapiens, UniProt P03951); assay: LC-MS determination of FXIa-mediated cleavage of groove-binding peptides; format: in vitro ADME
T4 construct: purchased Haematologic Technologies
Experimental: Peptide cleavage was determined by using the calculated molecular weights and by measuring the area under the curves.

LDLR ectodomain = target: T5, LDLR ectodomain (Homo sapiens, UniProt P01130); assay: Biolayer interferometry binding of PCSK9 mutants to LDLR ectodomain
T5 construct: purchased R & D Systems
Text: In further experiments the previously described PCSK9 mutant PCSK9-R215A:R218A (=PCSK9-AA) (Lipari et al. J Biol Chem. 2012 Dec. 21; 287(52):43482-91), in which the “furin cleavage loop” residues had been changed to Alanine, was used in order to prevent protease cleavage at the susceptible residues R215 and R218. […] Therefore, to direct the FXIa cleavage specifically to the P′ alpha helix residue R160 the triple mutant PCSK9-R167A:R215A:R218A (=PCSK9-AAA) was produced. The binding affinities of PCSK9-AAA and PCSK9-AA to the LDLR ectodomain (R & D Systems) were determined by biolayer interferometry as described (Lipari et al. J Biol Chem. 2012 Dec. 21; 287(52):43482-91).

PCSK9 [4] = target: T1, PCSK9; assay: Phage competition ELISA; format: binding
Experimental: The sequences of selected clones were fused to the N-terminus of M13 major coat protein (p8) using Kunkel mutagenesis method (Kunkel et al., Methods Enzymol 154, 367-82). The resulting construct was transformed to E. Coli. XL1 blue, single colony was grown in 1 mL 2YT supplemented with 50 μg/mL carbenicillin, 10 μg/mL Tetracycline and M13 KO7 helper phage at 37° C. for 2 h, Kanamycin was added to final concentration of 25 μg/mL, growth was continued at 37° C. for 6 h. The culture was transferred to 30 mL 2YT supplemented with 50 μg/mL carbenicillin and 25 μg/mL kanamycin and grown at 37° C. overnight. The next day, the phage was harvested and purified using the standard protocol (Tonikian et al. Nat Protoc. 2007; 2(6):1368-86). The serially diluted phage solution was applied to the biotinylated PCSK9 and biotinylated PCSK9Δhelix that had been immobilized for 15 min on a 384-well MaxiSorp ImmunoPlate previously coated with 5 μg/mL NeutrAvidin and blocked with Block buffer. The plate was incubated at 4° C. for 1 h, washed 10 times with PT buffer (PBS, 0.05% Tween® 20). The bound phage was detected with anti-M13-HRP and the ELISA signal was read at OD450 nm. The background was ELISA signal that the phage directly bound to NeutrAvidin-coated plate. The data was plotted and the curve fitted with KaleidaGraph. Sub-saturating phage concentration that gave 80% of maximum binding signal was determined by the binding curve.
IC50 measurements were performed by mixing a fixed sub-saturating concentration of peptide-displaying phage with a serial dilution of synthetic peptides in PBT buffer. The mixture was added to plates coated with PCSK9 and PCSK9Δhelix and incubated for 1 h at room temperature. The plates were then washed 10 times with PBT buffer and the bound phage was detected by anti-M13-HRP. The data was plotted, curve fitted and IC50 derived by use of KaleidaGraph. All measurements were repeated 3 times independently.

PCSK9 [5] = target: T1, PCSK9; assay: PCSK9 | IC50(uM)
Text: Where the first naming reader finds the target: head: PCSK9 | IC50(uM)

PCSK9Δhelix [6] = target: T2, PCSK9Δhelix; assay: PCSK9Δhelix | IC50(uM)
Text: Where the first naming reader finds the target: head: PCSK9Δhelix | IC50(uM)

contaminating protease = assay: PCSK9 cleavage under crystallization conditions and inhibition by serine protease inhibitors; format: biochemical; details: serpins 150 μM, Aprotinin 1.5 mM, 9 days, room temperature
Experimental: After SDS-PAGE of the samples, the 60 kDa band comprising the PCSK9 catalytic domain and Cys-rich domain (CRD) was analyzed by N-terminal sequencing and the results reported in Table 2.
Samples were analyzed by SDS-PAGE and transferred to a nitrocellulose membrane using iBlot (Invitrogen). Proteins were then probed with a polyclonal rabbit antibody (1:3000) raised against the PCSK9 N-terminal peptide (^153[…]^168 (SEQ ID NO: 5)), followed with HRP-conjugated donkey anti-rabbit antibody (1:5000, GE Healthcare) using iBind (Invitrogen). PCSK9 signals were detected by ECL (GE Healthcare) and visualized by autoradiography. The polyclonal rabbit antibody against the PCSK9 N-terminal peptide ^153[…]^168 (SEQ ID NO: 5) was generated by immunizing rabbits with the synthesized peptide […] (SEQ ID NO: 285), which contained an extra Cys residue at the N-terminus for conjugation to KLH. The polyclonal antibody IgG was purified from rabbit serum using affinity chromatography with resin-immobilized peptide […] (SEQ ID NO: 285) (YenZym Antibodies, LLC, San Francisco, Calif.).

## CCCCC(=O)N[C@@H](Cc1c[nH]c2ccccc12)C(=O)N[C@@H](CC(N)=O)C(=O)N[C@@H](CC(C)C)C(=O)N[C@H](C(=O)N[C@@H](CCCNC(=N)N)C(=O)N[C@H](C(=O)NCC(=O)N[C@@H](CC(C)C)C(=O)N[C@H](C(=O)N[C@@H](CCCNC(=N)N)C(N)=O)[C@@H](C)O)[C@@H](C)CC)C(C)C [Compound 112] (Pentanoyl-WNLVRIGLTR-NH2)
PCSK9 [1]
  IC50: > 50 µM
PCSK9Δhelix [2]; TR-FRET, Example 7, read-out: PCSK9Δhelix/Ab20 IC50
  IC50: 7.5 µM
His-EGF(A)-Fc
  IC50: > 50 µM
[3]
  effect on FXIa-mediated cleavage of the P′ helix of PCSK9-AAA: able to increase the FXIa-mediated cleavage
FXIa; 1 h, with K9-AAA and 50 nM FXIa
  peptide cleaved by FXIa: 34%
FXIa; 6 h, with K9-AAA and 50 nM FXIa
  peptide cleaved by FXIa: 76%
FXIa; isolated protease FXIa (50 nM) with K9-AAA, 1 h, with K9-AAA and 50 nM FXIa, read-out: peptide cleaved by FXIa
  metabolised at 1 h: 34%
FXIa; isolated protease FXIa (50 nM) with K9-AAA, 6 h, with K9-AAA and 50 nM FXIa, read-out: peptide cleaved by FXIa
  metabolised at 6 h: 76%

## CCCCC(=O)N[C@@H](Cc1c[nH]c2ccccc12)C(=O)N[C@@H](CC(N)=O)C(=O)N[C@@H](CC(C)C)C(=O)N[C@H](C(=O)N[C@@H](CCCCNC(=N)N)C(=O)N[C@H](C(=O)NCC(=O)N[C@@H](CC(C)C)C(=O)N[C@H](C(=O)N[C@@H](CCCNC(=N)N)C(N)=O)[C@@H](C)O)[C@@H](C)CC)C(C)C [Compound 118, n-BuC(O)-WNLV(homoR)IGLTR-NH2] (Pentanoyl-WNLV[hArg]IGLTR-NH2)
PCSK9 [1]
  IC50: > 50 µM
PCSK9Δhelix [2]; versus Compound 112
  increase of inhibition in PCSK9Δhelix/Ab20 assay by homo-arginine replacement: 5 fold
His-EGF(A)-Fc
  IC50: > 50 µM
[3]
  effect on FXIa-mediated cleavage of the P′ helix of PCSK9-AAA: higher degree; also recorded: able to increase the FXIa-mediated cleavage; also recorded: stronger effect
FXIa; up to 6 h
  peptide cleavage by FXIa: remained intact; also recorded: No cleavage

## PCSK9-AA: PCSK9 mutant in which the furin cleavage loop residues R215 and R218 had been changed to Alanine
LDLR ectodomain
  Kd: 0.26 µM

## SGDLMPWNLVRIGLLR-NH2 [Compound K9gvpep7]
PCSK9 [4]
  competition with binding of phage-displayed Pep2-8 to PCSK9: did not compete
PCSK9 [5]
  IC50: 0.635 ± 0.107 µM
PCSK9Δhelix [6]
  IC50: 0.914 ± 0.0283 µM

## SGGSMPWNLERIFALH-NH2 [Compound K9gvpep8]
PCSK9 [4]
  competition with binding of phage-displayed Pep2-8 to PCSK9: did not compete
PCSK9 [5]
  IC50: 1.7 ± 0.166 µM
PCSK9Δhelix [6]
  IC50: 2.15 ± 0.215 µM

## alpha1-antitrypsin: more elastase-specific serpin
Contaminating protease
  inhibition of P′ helix cleavage of the Fab33:PCSK9 complex by contaminating protease: did not inhibit cleavage

## antithrombin III
Contaminating protease
  inhibition of P′ helix cleavage of the Fab33:PCSK9 complex by contaminating protease: cleavage was prevented; also recorded: able to prevent proteolytic cleavage

B1: PCSK9-AAA: triple mutant PCSK9-R167A:R215A:R218A (protein, UniProt Q8NBP7 153-692, looked up, variant R167A R215A R218A)
Proprotein convertase …: SIPWNLERITPPRYAADEYQPPDGGSLVEVYLLDTSIQSDHREIEGRVMVTDFENVPEEDGTAFHAQASKCDSHGTHLAGVVSGRDAGVAKGASMRSLRVLNCQGKGTVSGTLIGLEFIRKSQLVQPVGPLVVLLPLAGGYSRVLNAACQRLARAGVVLVTAAGNFRDDACLYSPASAPEVITVGATNAQDQPVTLGTLGTNFGRCVDLFAPGEDIIGASSDCSTCFVSQSGTSQAAAHVAGIAAMMLSAEPELTLAELRQRLIHFSAKDVINEAWFPEDQRVLTPNLVAALPPSTHGAGWQLFCRTVWSAHSGPTRMATAVARCAPDEELLSCSSFSRSGKRRGERMEAQGGKLVCRAHNAFGGEGVYAIARCCLLPQANCSVHTAPPAEASMGTRVHCHQQGHVLTGCSSHWEVEDLGTHKPPVLRPRGQPNQCVGHREASIHASCCHAPGLECKVKEHGIPAPQEQVTVACEEGWTLTGCSALPGTSHVLGAYAVDNTCVVRSRDVSTTGSTSEGAVTAVAICCRSRHLAQASQELQ
LDLR ectodomain
  Kd: 0.214 µM
